The test system of series [1] is MTLR. The settings on record: cited from earlier work.
A further series concerns GI motility. The settings on record: cited from earlier work; for GI motility activity: [51].
The test system of series [2] is MTLR. The conditions noted are these: camicinal; ref [51]; cited from earlier work.
Series [3] deals with MTLR. The conditions noted are these: cited from earlier work. The source holds these as a separate data set.
For series [4] the following is noted: cited from earlier work.
The test system of series [5] is MTLR, substitution of E119^3.33 with aspartic acid. The settings on record: E119^3.33 substituted with aspartic acid; ref [16]; cited from earlier work.
The target of the next series is MTLR L341A (Homo sapiens, UniProt O43193, L341A). The series can be described thus: IP1 accumulation. Type of series: cell-based. The conditions noted are these: MTLR-bearing alanine mutation of L341^7.39.
Series [6] has as its system MTLR. The conditions noted are these: cited from earlier work. This is another data set of the same source.
A further series relates to gastroparesis. The settings on record: ref [14], [15]; cited from earlier work.

Chain of MTLR L341A (O43193 whole entry L341A): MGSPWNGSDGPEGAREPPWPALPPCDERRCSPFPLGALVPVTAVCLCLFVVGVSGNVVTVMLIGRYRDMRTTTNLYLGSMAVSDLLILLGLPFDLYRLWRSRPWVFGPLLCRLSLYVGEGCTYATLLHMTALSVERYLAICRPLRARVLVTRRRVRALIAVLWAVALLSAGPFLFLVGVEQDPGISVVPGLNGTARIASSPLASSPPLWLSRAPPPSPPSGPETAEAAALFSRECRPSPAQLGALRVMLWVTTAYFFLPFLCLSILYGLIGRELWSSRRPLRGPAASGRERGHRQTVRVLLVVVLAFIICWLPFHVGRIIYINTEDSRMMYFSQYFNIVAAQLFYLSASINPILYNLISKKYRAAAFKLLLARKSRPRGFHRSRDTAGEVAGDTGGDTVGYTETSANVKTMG

Turning to `CC[C@H]1OC(=O)[C@H](C)[C@@H](O[C@H]2C[C@@](C)(OC)C[C@H](C)O2)[C@H](C)[C@@H](O[C@@H]2O[C@H](C)C[C@H](N(C)CC)[C@H]2O)[C@@]2(C)CC(C)=C(O2)[C@H](C)[C@@H](O)[C@H]1C` [ABT-229], the desensitization-inducing effect result in the series with MTLR [1] (compared with motilin and erythromycin, ref [52], [53]) is “more potent desensitization-inducing effect compared with motilin and erythromycin”. In the series with MTLR [1] (ref [52], [53]), the receptor internalization entry is “relatively high ability to induce receptor internalization”.
On to `C[C@H]1CN(Cc2ccc(CC(=O)N3CCC(Nc4cccc(F)c4)CC3)cc2)CCN1` [Camicinal, camicinal], for which the gastric cholinergic activity entry in the series with GI motility (ref [51]) was “long-lasting gastric cholinergic activity”. Moreover, the receptor selectivity entry in the series on MTLR [2] is “high receptor selectivity”. The “oral effectiveness as MTLR agonist” value in the series on MTLR [3] (ref [51]) is listed as “orally effective MTLR agonist”.
`CC[C@H]1OC(=O)[C@H](C)[C@@H](O[C@H]2C[C@@](C)(OC)[C@@H](O)[C@H](C)O2)[C@H](C)[C@@H](O[C@@H]2O[C@H](C)C[C@H](N(C)C)[C@H]2O)[C@](C)(O)C[C@@H](C)CN(C)[C@H](C)[C@@H](O)[C@]1(C)O` [azithromycin]: the GI motility activity result in the series on GI motility (ref [9]) is recorded as “mimic the GI motility activity of motilin”. Also, the GI disturbances entry in series [4] (long-term use, azithromycin, ref [4], [15]) was “often causes unexpected GI disturbances”.
With `CC[C@H]1OC(=O)[C@H](C)[C@@H](O[C@H]2C[C@@](C)(OC)[C@@H](O)[C@H](C)O2)[C@H](C)[C@@H](O[C@@H]2O[C@H](C)C[C@H](N(C)C)[C@H]2O)[C@](C)(O)C[C@@H](C)C(=O)[C@H](C)[C@@H](O)[C@]1(C)O` [erythromycin], in the series on GI motility (ref [9], [10]), the GI contractile activity result is given as “mimic exogenous motilin in GI contractile activity”. Besides, the GI motility activity entry in the series on GI motility (ref [9]) was “mimic the GI motility activity of motilin”. For the same molecule, the ligand activity entry in series [5] was “marked decrease in ligand activity”. The “erythromycin activity (in words)” value at MTLR L341A is “markedly decreased erythromycin activities”. The “role of ECL2 regions of MTLR for erythromycin” value in the series on MTLR [6] (ref [16], [35]) is on record as “not critical for erythromycin”. In addition, the “weaker MTLR activation ability than motilin” value in the series on MTLR [3] (erythromycin versus motilin, ref [4]) is given as ~ 1000 -fold. In addition, the MTLR agonism result with MTLR [3] (ref [11]) is “agonist for MTLR”. Moreover, the effectiveness in gastroparesis entry in the series on gastroparesis is “effective treatment for gastroparesis”.
With `CC[C@H]1OC(=O)[C@H](C)[C@@H](O[C@H]2C[C@@](C)(OC)[C@@H](O)[C@H](C)O2)[C@H](C)[C@@H](O[C@@H]2O[C@H](C)C[C@H](N(C)C(C)C)[C@H]2O)[C@@]2(C)CC(C)=C(O2)[C@H](C)C(=O)[C@]1(C)OC` [mitemcinal], the desensitization effect result in the series with MTLR [1] (ref [54]) is given as “much more improved”.
On to atilmotin, for which the adverse effects result in [4] (ref [50]) is on record as “not associated with any central nervous system–, respiratory system–, or cardiovascular system–related adverse effects”.
With “motilin analog [1-12]: motilin analog [1-12] (FVPIFTYGELQR; Motilin; UniProt P12872 26-37, looked up, fragment)”, the “fold increased binding affinity” value with MTLR [6] (motilin analog [1-12] compared with analog [1-11], ref [4]) is 158 -fold.

The values above are taken from PMC10017046 (Science Advances, 2023).
